Measured values: publication PMC5426640, “A novel multifunctional peptide oligomer of bacitracin with possible bioindustrial and therapeutic applications from a Korean food-source Bacillus strain” (PLoS ONE, 2017)
In brackets after ≈: the same amount, converted by molar mass. Where a SMILES comes first, the peptide text is derived from it. Bridges are numbered along the chain shown (N, C = ends). [ ]: non-standard residue; d: D form. The star is where a group is joined. Ileψ(thiazoline)Cys = CC[C@H](C)[C@H](N)C1=N[C@H](C(=O)*)CS1; dOrn = NCCC[C@@H](N)C(=O)O

Tests used:
VRE89 = experiment: organism not typed; format: cell-based, enterococci; conditions: 18 h
Experimental: (§1) This activity in terms of minimal inhibitory concentration (MIC) was determined by dilution and disk diffusion methods as per the Clinical and Laboratory Standards Institute (CLSI) guidelines for antimicrobial susceptibility testing. The examination of bacteria was conducted after incubation for 18 h at 37°C following inoculation of various test microorganisms, including methicillin-resistant Staphylococcus aureus (MRSA), vancomycin-resistant S. aureus (VRSA), or vancomycin-resistant enterococci (VRE). Control antibiotics were bacitracin and vancomycin.

VRE82 = experiment: organism not typed; format: cell-based, enterococci; conditions: 18 h
Experimental: as §1

VRE4 = experiment: organism not typed; format: cell-based, enterococci; conditions: 18 h
Experimental: as §1

VRE5 = experiment: organism not typed; format: cell-based, enterococci; conditions: 18 h
Experimental: as §1

VRE6 = experiment: organism not typed; format: cell-based, enterococci; conditions: 18 h
Experimental: as §1

VRE3 = experiment: organism not typed; format: cell-based, enterococci; conditions: 18 h
Experimental: as §1

[1] = tested on: Salmonella typhimurium KCTC 1925; experiment: microbe, parasite or virus in culture; format: cell-based
Experimental: as §1

[2] = tested on: Alcaligenes faecalis ATCC 1004; experiment: microbe, parasite or virus in culture; format: cell-based
Experimental: as §1

[3] = tested on: Mycobacterium smegmatis ATCC 9341; experiment: microbe, parasite or virus in culture; format: cell-based; conditions: ATCC 9341, 18 h
Experimental: as §1

[4] = tested on: Listeria monocytogenes KCTC3569; experiment: microbe, parasite or virus in culture; format: cell-based; conditions: KCTC3569, 18 h
Experimental: as §1

[5] = tested on: Micrococcus luteus ATCC 9341; experiment: microbe, parasite or virus in culture; format: cell-based
Experimental: as §1

MRSA S3 = experiment: microbe, parasite or virus in culture; format: cell-based, Staphylococcus aureus
Experimental: as §1

MRSA 4–5 = experiment: microbe, parasite or virus in culture; format: cell-based, Staphylococcus aureus
Experimental: as §1

MRSA 639E = experiment: microbe, parasite or virus in culture; format: cell-based, Staphylococcus aureus; conditions: 18 h
Experimental: as §1

MRSA U4 = experiment: microbe, parasite or virus in culture; format: cell-based, Staphylococcus aureus
Experimental: as §1

MRSA 5–3 = experiment: microbe, parasite or virus in culture; format: cell-based, Staphylococcus aureus
Experimental: as §1

MRSA P3 = experiment: microbe, parasite or virus in culture; format: cell-based, Staphylococcus aureus
Experimental: as §1

MSRA S1 = experiment: microbe, parasite or virus in culture; format: cell-based, Staphylococcus aureus; conditions: 18 h
Experimental: as §1

VRSA = experiment: microbe, parasite or virus in culture; format: cell-based, S. aureus; conditions: 18 h
Experimental: as §1

[6] = tested on: Escherichia coli KCTC 1923; format: cell-based; conditions: KCTC 1923, 18 h
Experimental: as §1

[7] = tested on: Bacillus subtilis ATCC 6633; format: cell-based; conditions: ATCC 6633, 18 h
Experimental: as §1

[8] = tested on: Pseudomonas aeruginosa KCTC 1637; format: cell-based; conditions: KCTC 1637, 18 h
Experimental: as §1

[9] = tested on: Enterococcus faecalis ATCC 29212; format: cell-based; conditions: ATCC 29212, 18 h
Experimental: as §1

[10] = tested on: Staphylococcus aureus KCTC 1928; format: cell-based; conditions: KCTC 1928, 18 h
Experimental: as §1

VRE 2 = experiment: microbe, parasite or virus in culture; format: cell-based, enterococci; conditions: 18 h
Experimental: as §1

RAW 264.7 cells = experiment: Cell viability, MTT assay; format: cell-based, mouse; conditions: 5–100 μg/mL, 24 h; three independent experiments in triplicate
Experimental: Cell viability was assessed using the 3-(4,5-dimethylthiazol-2-yl)-2,5-diphenyltetrazolium bromide (MTT) assay as described previously by Choi et al. (2016). For the cell viability assay, RAW 264.7 cells were seeded into a 96-well flat bottom microplate at a density of 2 × 10^4 cells per well and incubated at 37°C for 1 h. […] After 24 h of incubation, the medium was removed and wash in PBS once followed by 100 μl of MTT (5 mg/ml in PBS) solution was added to each well, and the plate was incubated for another 1 h. Then 100 μl of DMSO (100%) was added to dissolve the formazan crystals. Absorbance values were then measured at 450 nm using a microplate reader (Victor3, PerkinElmer).

[11] = tested on: Propionibacterium acnes KCTC5933; experiment: Antimicrobial activity against anaerobic pathogens (mm); format: cell-based; conditions: 48 h, mean ± SD, n = 3
[12] = tested on: Clostridium difficile KCTC2251; experiment: as above; format: cell-based; conditions: 48 h, mean ± SD, n = 3
Mycobacterium smegmatis = experiment: microbe, parasite or virus in culture; format: cell-based; conditions: Mycolicibacterium smegmatis, ATCC9341, 18 h
Experimental: as §1

[13] = Staphylococcus aureus, MRSA, 18 h

CC[C@H](C)[C@H](N)C1=N[C@H](C(=O)N[C@@H](CC(C)C)C(=O)N[C@H](CCC(=O)O)C(=O)N[C@H](C(=O)N[C@H]2CCCCNC(=O)[C@H](CC(N)=O)NC(=O)[C@@H](CC(=O)O)NC(=O)[C@H](Cc3cnc[nH]3)NC(=O)[C@@H](Cc3ccccc3)NC(=O)[C@H]([C@@H](C)CC)NC(=O)[C@@H](CCCN)NC2=O)[C@@H](C)CC)CS1 [Bacitracin] ({Ileψ(thiazoline)Cys}-L[dE]IK[dOrn]I[dF]H[dD]N; lactam 4-C (inferred); N-terminus assumed)
MIC (VRE89): 40 µg/mL (≈ 28.1 µM)
MIC (VRE82): 40 µg/mL (≈ 28.1 µM)
MIC (VRE4): 5 µg/mL (≈ 3.51 µM)
MIC (VRE5): 1.25 µg/mL (≈ 0.879 µM)
MIC (VRE6): >80 µg/mL
MIC (VRE3): 20 µg/mL (≈ 14.1 µM)
MIC ([1]; KCTC 1925, 18 h): >80 µg/mL
MIC ([2]; ATCC 1004, 18 h): >80 µg/mL
MIC [3]: >80 µg/mL
MIC [4]: 0.3125 µg/mL (≈ 0.22 µM)
MIC ([5]; ATCC 9341, 18 h): >80 µg/mL
MIC (MRSA S3; S3, 18 h): 1.25 µg/mL (≈ 0.879 µM)
MIC (MRSA 4–5; 4–5, 18 h): 1.25 µg/mL (≈ 0.879 µM)
MIC (MRSA 639E; 639E): 40 µg/mL (≈ 28.1 µM)
MIC (MRSA U4; U4, 18 h): 1.25 µg/mL (≈ 0.879 µM)
MIC (MRSA 5–3; 5–3, 18 h): 1.25 µg/mL (≈ 0.879 µM)
MIC (MRSA P3; P3, 18 h): 1.25 µg/mL (≈ 0.879 µM)
MIC (MSRA S1): 1.25 µg/mL (≈ 0.879 µM)
MIC (VRSA): >80 µg/mL
MIC [6]: >80 µg/mL
MIC [7]: 40 µg/mL (≈ 28.1 µM)
MIC [8]: >80 µg/mL
MIC [9]: 5 µg/mL (≈ 3.51 µM)
MIC [10]: 40 µg/mL (≈ 28.1 µM)
MIC (VRE 2): 0.3125 µg/mL (≈ 0.22 µM)

CC[C@H](C)[C@H](N)C1=N[C@H](C(=O)N[C@@H](CC(C)C)C(=O)N[C@H](CCC(=O)O)C(=O)N[C@H](C(=O)N[C@H]2CCCCNC(=O)[C@H](CC(N)=O)NC(=O)[C@@H](CC(=O)O)NC(=O)[C@H](Cc3cnc[nH]3)NC(=O)[C@@H](Cc3ccccc3)NC(=O)[C@H]([C@@H](C)CC)NC(=O)[C@@H](CCCN)NC2=O)[C@@H](C)CC)CS1 [CSP32] ({Ileψ(thiazoline)Cys}-L[dE]IK[dOrn]I[dF]H[dD]N; lactam 4-C)
Cytotoxicity toward RAW 264.7 cells (MTT) (RAW 264.7 cells): did not exert cytotoxicity

CC[C@@]1([C@@H]2O[C@@H]([C@H]3O[C@@](O)(CO)[C@H](C)C[C@@H]3C)C[C@@H]2C)CC[C@H]([C@]2(C)CC[C@]3(C[C@H](O)[C@@H](C)[C@@H]([C@@H](C)[C@@H](OC)[C@H](C)C(=O)O)O3)O2)O1 [Monensin]
Antimicrobial activity, Propionibacterium acnes (mm) ([11]; concentration 0.125 mg/mL): 13.00±0.50 mm
Antimicrobial activity, Propionibacterium acnes (mm) ([11]; concentration 0.25 mg/mL): 15.17±0.29 mm
Antimicrobial activity, Propionibacterium acnes (mm) ([11]; concentration 0.5 mg/mL): 17.33±0.58 mm
Antimicrobial activity, Propionibacterium acnes (mm) ([11]; concentration 1 mg/mL): 17.17±0.29 mm
Antimicrobial activity, Clostridium difficile (mm) ([12]; concentration 0.125 mg/mL): 13.17±0.29 mm
Antimicrobial activity, Clostridium difficile (mm) ([12]; concentration 0.25 mg/mL): 13.00±0.50 mm
Antimicrobial activity, Clostridium difficile (mm) ([12]; concentration 0.5 mg/mL): 15.17±0.29 mm
Antimicrobial activity, Clostridium difficile (mm) ([12]; concentration 1 mg/mL): 17.33±0.29 mm

CN[C@H](CC(C)C)C(=O)N[C@H]1C(=O)N[C@@H](CC(N)=O)C(=O)N[C@H]2C(=O)N[C@H]3C(=O)N[C@H](C(=O)N[C@H](C(=O)O)c4cc(O)cc(O)c4-c4cc3ccc4O)[C@H](O)c3ccc(c(Cl)c3)Oc3cc2cc(c3O[C@@H]2O[C@H](CO)[C@@H](O)[C@H](O)[C@H]2O[C@H]2C[C@](C)(N)[C@H](O)[C@H](C)O2)Oc2ccc(cc2Cl)[C@H]1O [Vancomycin]
MIC (VRE89): > 80 µg/mL
MIC (VRE82): > 80 µg/mL
MIC (VRE4): > 80 µg/mL
MIC (VRE5): > 80 µg/mL
MIC (VRE6): > 80 µg/mL
MIC (VRE3): > 80 µg/mL
MIC ([1]; Salmonella enterica, 18 h): > 80 µg/mL
MIC (Mycobacterium smegmatis): 0.312 µg/mL (≈ 0.216 µM)
MIC ([2]; Alcaligenes faecalis, ATCC1004, 18 h): > 80 µg/mL
MIC ([4]; Listeria monocytogenes): 0.156 µg/mL (≈ 0.108 µM)
MIC ([5]; Micrococcus luteus, ATCC9341, 18 h): 0.156 µg/mL (≈ 0.108 µM)
MIC (MRSA S3; [13]): 0.312 µg/mL (≈ 0.216 µM)
MIC (MRSA 4–5; [13]): 0.312 µg/mL (≈ 0.216 µM)
MIC (MRSA 639E; Staphylococcus aureus, MRSA): 0.312 µg/mL (≈ 0.216 µM)
MIC (MRSA U4; [13]): 0.312 µg/mL (≈ 0.216 µM)
MIC (MRSA 5–3; [13]): 0.312 µg/mL (≈ 0.216 µM)
MIC (MRSA P3; [13]): 0.625 µg/mL (≈ 0.431 µM)
MIC (MSRA S1; Staphylococcus aureus): 0.625 µg/mL (≈ 0.431 µM)
MIC (VRSA; Staphylococcus aureus, VRSA): > 80 µg/mL
MIC (VRE 2; Enterococcus, VRE): > 80 µg/mL
